# Laboratory results published in US8815909B2, “Diaminocyclohexane compounds and uses thereof” (Bristol-Myers Squibb Company, priority 2011, dated 2014).
# Read-outs that look alike come from different tables or passages of the source.
# Target: T1, human Y4 receptor (Homo sapiens, UniProt P50391)
# T1 construct: expressed in transfected cells
# Experiment: NPY4 cAMP HTRF Agonist Assay (inhibitory cAMP assay, Gi activation by Y4 agonism)
# Assay type: cell-based
# Settings: read-out: hY4 CAMP EC50
# In short: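 Y4 agonism read as lowered forskolin-stimulated cAMP (HTRF, 1 h detection at room temperature). Stable human Y4 CHO clone, 5000 cells/well, incubated 30 min at room temperature with compounds plus forskolin and IBMX in PBS.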
# T1 sequence (P50391 whole entry): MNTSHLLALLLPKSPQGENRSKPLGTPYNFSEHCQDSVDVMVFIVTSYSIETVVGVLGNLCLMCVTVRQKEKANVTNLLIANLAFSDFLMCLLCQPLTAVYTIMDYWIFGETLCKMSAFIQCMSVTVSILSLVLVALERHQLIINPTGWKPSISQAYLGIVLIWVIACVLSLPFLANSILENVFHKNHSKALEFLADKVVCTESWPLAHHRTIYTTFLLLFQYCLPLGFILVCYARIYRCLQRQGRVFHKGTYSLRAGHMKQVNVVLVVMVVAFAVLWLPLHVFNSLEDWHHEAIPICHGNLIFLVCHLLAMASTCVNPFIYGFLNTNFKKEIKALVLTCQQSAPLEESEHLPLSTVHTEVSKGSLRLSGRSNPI
Structure (SMILES),"EC50 (second TABLE 1, R2 is Phenyl-CF3) [nM]","EC50 (TABLE 2, R2 is Phenyl-CN) [nM]"
FC(F)(F)c1ccc(N2CCC[C@H](N[C@@H]3CCCC[C@H]3Nc3cc(-c4cc[nH]c4)ccn3)C2)cc1 [Example 198],67,
C[C@]1(N[C@@H]2CCCC[C@H]2Nc2ncc(-c3cccc(C(N)=O)c3)o2)CCCN(c2ccc(C#N)cc2)C1 [Example 199],,2
COC(=O)Nc1cccc(-c2ccnc(N[C@@H]3CCCC[C@H]3N[C@H]3CCCN(c4ccc(C#N)cc4)C3)c2)c1 [Example 200],,3
COC(=O)Nc1cccc(-c2ccnc(N[C@@H]3CCCC[C@H]3N[C@H]3CCCN(c4ccc(C#N)cc4)C3)c2)c1 [Example 201],,5
N#Cc1ccc(N2CCC[C@H](N[C@@H]3CCCC[C@H]3Nc3cn(-c4ccc(OC(F)(F)F)cc4)nn3)C2)cc1 [Example 202],,774
COC(=O)c1ccccc1-c1ccnc(N[C@@H]2CCCC[C@H]2N[C@H]2CCCN(c3ccc(C#N)cc3)C2)c1 [Example 203],,211
COC(=O)c1cccn1-c1ccnc(N[C@@H]2CCCC[C@H]2N[C@H]2CCCN(c3ccc(C#N)cc3)C2)c1 [Example 204],,147
CCOC(=O)Nc1cccc(-c2cnc(N[C@@H]3CCCC[C@H]3N[C@H]3CCCN(c4ccc(C#N)cc4)C3)o2)c1 [Example 205],,0.2
N#Cc1ccc(N2CCC[C@H](N[C@@H]3CCCC[C@H]3Nc3cc(-n4ccc(C(F)(F)F)n4)ccn3)C2)cc1 [Example 206],,440
CC(C)(O)c1cccc(-c2cnc(N[C@@H]3CCCC[C@H]3N[C@H]3CCCN(c4ccc(C#N)cc4)C3)o2)c1 [Example 207],,39
N#Cc1ccc(N2CCC[C@H](N[C@@H]3CCCC[C@H]3Nc3cc(-n4cncn4)ccn3)C2)cc1 [Example 208],,231
N#Cc1ccc(N2CCC[C@H](N[C@@H]3CCCC[C@H]3Nc3cc(-c4cccc5cn[nH]c45)ccn3)C2)cc1 [Example 209],,83
N#Cc1ccc(N2CCC[C@H](N[C@@H]3CCCC[C@H]3Nc3cc(-c4ccc5[nH]ncc5c4)ccn3)C2)cc1 [Example 210],,640
N#Cc1ccc(N2CCC[C@H](N[C@@H]3CCCC[C@H]3Nc3cc(-c4cccc5[nH]ncc45)ccn3)C2)cc1 [Example 211],,22
N#Cc1ccc(N2CCC[C@H](N[C@@H]3CCCC[C@H]3Nc3cc(-c4cccc5c4CC(=O)N5)ccn3)C2)cc1 [Example 212],,13
N#Cc1ccc(N2CCC[C@H](N[C@@H]3CCCC[C@H]3Nc3cc(-c4cccc5c4NC(=O)C5)ccn3)C2)cc1 [Example 213],,183
N#Cc1ccc(N2CCC[C@H](N[C@@H]3CCCC[C@H]3Nc3cc(Cc4ccn[nH]4)ccn3)C2)cc1 [Example 214],,964
N#Cc1ccc(N2CCC[C@H](N[C@@H]3CCCC[C@H]3Nc3cc(-c4ccc5cn[nH]c5c4)ccn3)C2)cc1 [Example 215],,215
N#Cc1ccc(N2CCC[C@H](N[C@@H]3CCCC[C@H]3Nc3cc(-c4cncc5ccccc45)ccn3)C2)cc1 [Example 216],,189
N#Cc1ccc(N2CCC[C@H](N[C@@H]3CCCC[C@H]3Nc3cc(-c4cnc5ccccc5c4)ccn3)C2)cc1 [Example 217],,478

Structure (SMILES),"EC50 (second TABLE 1, R2 is Phenyl-CF3) [nM]","EC50 (TABLE 2, R2 is Phenyl-CN) [nM]"
N#Cc1ccc(N2CCC[C@H](N[C@@H]3CCCC[C@H]3Nc3cc(-c4ccc(CO)cc4)ccn3)C2)cc1 [Example 218],,302
COc1ccc(-c2ccnc(N[C@@H]3CCCC[C@H]3N[C@H]3CCCN(c4ccc(C#N)cc4)C3)c2)cc1 [Example 219],,45
N#Cc1ccc(N2CCC[C@H](N[C@@H]3CCCC[C@H]3Nc3cc(-c4ccc5nccnc5c4)ccn3)C2)cc1 [Example 221],,77
COc1ccc(-c2ccnc(N[C@@H]3CCCC[C@H]3N[C@H]3CCCN(c4ccc(C#N)cc4)C3)c2)cn1 [Example 222],,46
N#Cc1ccc(N2C[C@@H]3C[C@H](N[C@@H]4CCCC[C@H]4Nc4ncc(-c5ccccc5F)o4)[C@H]2C3)cc1 [Example 223],,5
N#Cc1ccc(N2C[C@@H]3C[C@H](N[C@@H]4CCCC[C@H]4Nc4ncc(-c5ccccc5OC(F)(F)F)o4)[C@H]2C3)cc1 [Example 224],,2
N#Cc1ccc(N2C[C@@H]3C[C@H](N[C@@H]4CCCC[C@H]4Nc4ncc(-c5ccc(O)cc5)o4)[C@H]2C3)cc1 [Example 225],,54
N#Cc1ccc(N2CCC[C@H](N[C@@H]3CCCC[C@H]3Nc3ncc(-c4ccccc4OC(F)(F)F)o3)C2)cc1 [Example 226],,5
N#Cc1ccc(N2C[C@@H]3C[C@H](N[C@@H]4CCCC[C@H]4Nc4cc(-c5ccc(OC(F)F)cc5)ccn4)[C@H]2C3)cc1 [Example 227],,16
N#Cc1ccc(N2C[C@@H]3C[C@H](N[C@@H]4CCCC[C@H]4Nc4cc(-c5cccc(O)c5)ccn4)[C@H]2C3)cc1 [Example 228],,1
N#Cc1ccc(N2CC3CC2[C@@H](N[C@@H]2CCCC[C@H]2Nc2ncc(-c4ccc(OC(F)F)cc4)o2)C3)cc1 (stereo partly shown) [Example 229],,3
N#Cc1ccc(N2CCC[C@H](N[C@@H]3CCCC[C@H]3NC3=NOC(c4ccccc4)C3)C2)cc1 (stereo partly shown) [Example 230],,378
N#Cc1ccc(N2C[C@@H]3C[C@H](N[C@@H]4CCCC[C@H]4Nc4cc(-c5cccc(C(N)=O)c5)ccn4)[C@H]2C3)cc1 [Example 231],,8
N#Cc1ccc(N2C[C@@H]3C[C@H](N[C@@H]4CCCC[C@H]4Nc4cc(-c5ccccc5)ccn4)[C@H]2C3)cc1 [Example 232],,37
N#Cc1ccc(N2C[C@@H]3C[C@H](N[C@@H]4CCCC[C@H]4Nc4cc(Br)ccn4)[C@H]2C3)cc1 [Example 233],,196
C=C(C)c1ccnc(N[C@@H]2CCCC[C@H]2N[C@H]2CCCN(c3ccc(C#N)cc3)C2)c1 [Example 234],,299
N#Cc1ccc(N2CCC[C@H](N[C@@H]3CCCC[C@H]3Nc3cc(-c4cccc(S(N)(=O)=O)c4)ccn3)C2)cc1 [Example 236],,40
N#Cc1ccc(N2CCC[C@H](N[C@@H]3CCCC[C@H]3Nc3cc(-c4cccc(N)n4)ccn3)C2)cc1 [Example 237],,9
N#Cc1ccc(N2C[C@@H]3C[C@H](N[C@@H]4CCCC[C@H]4Nc4ncc(-c5ccc(C(N)=O)cc5)o4)[C@H]2C3)cc1 [Example 238],,272
N#Cc1ccc(N2CCC[C@H](N[C@@H]3CCCC[C@H]3Nc3cc(-c4ccc(N)cc4)ccn3)C2)cc1 [Example 239],,290

Structure (SMILES),"EC50 (second TABLE 1, R2 is Phenyl-CF3) [nM]","EC50 (TABLE 2, R2 is Phenyl-CN) [nM]"
CN(C)c1cccc(-c2ccnc(N[C@@H]3CCCC[C@H]3N[C@H]3CCCN(c4ccc(C#N)cc4)C3)c2)c1 [Example 240],,72
N#Cc1ccc(N2CCC[C@H](N[C@@H]3CCCC[C@H]3Nc3cc(-c4ccccc4OC(F)(F)F)ccn3)C2)cc1 [Example 241],,289
CS(=O)(=O)Nc1cccc(-c2ccnc(N[C@@H]3CCCC[C@H]3N[C@H]3CCCN(c4ccc(C#N)cc4)C3)c2)c1 [Example 242],,3
CS(=O)(=O)NCc1ccc(-c2ccnc(N[C@@H]3CCCC[C@H]3N[C@H]3CCCN(c4ccc(C#N)cc4)C3)c2)cc1 [Example 243],,602
CC(=O)NCc1cccc(-c2ccnc(N[C@@H]3CCCC[C@H]3N[C@H]3CCCN(c4ccc(C#N)cc4)C3)c2)c1 [Example 244],,7
N#Cc1ccc(N2CCC[C@H](N[C@@H]3CCCC[C@H]3Nc3cc(Cc4ccccc4)ccn3)C2)cc1 [Example 245],,299
C=Cc1ccnc(N[C@@H]2CCCC[C@H]2N[C@H]2CCCN(c3ccc(C#N)cc3)C2)c1 [Example 246],,379
N#Cc1ccc(N2CCC[C@H](N[C@@H]3CCCC[C@H]3Nc3cc(-c4ccco4)ccn3)C2)cc1 [Example 247],,15
N#Cc1ccc(N2CCC[C@H](N[C@@H]3CCCC[C@H]3Nc3cc(-c4ccccc4Cl)ccn3)C2)cc1 [Example 248],,557
N#Cc1ccc(N2CCC[C@H](N[C@@H]3CCCC[C@H]3Nc3cc(-c4cccc(C(F)(F)F)c4)ccn3)C2)cc1 [Example 249],,537
N#Cc1ccc(N2CCC[C@H](N[C@@H]3CCCC[C@H]3Nc3cc(-c4cccc(Cl)c4)ccn3)C2)cc1 [Example 250],,559
CC(=O)Nc1cccc(-c2ccnc(N[C@@H]3CCCC[C@H]3N[C@H]3CCCN(c4ccc(C#N)cc4)C3)c2)c1 [Example 251],,1
CC(=O)c1ccccc1-c1ccnc(N[C@@H]2CCCC[C@H]2N[C@H]2CCCN(c3ccc(C#N)cc3)C2)c1 [Example 253],,70
CS(=O)(=O)c1cccc(-c2ccnc(N[C@@H]3CCCC[C@H]3N[C@H]3CCCN(c4ccc(C#N)cc4)C3)c2)c1 [Example 254],,381
CS(=O)(=O)c1ccc(-c2ccnc(N[C@@H]3CCCC[C@H]3N[C@H]3CCCN(c4ccc(C#N)cc4)C3)c2)cc1 [Example 255],,922
CC(=O)c1cccc(-c2ccnc(N[C@@H]3CCCC[C@H]3N[C@H]3CCCN(c4ccc(C#N)cc4)C3)c2)c1 [Example 257],,100
CC(C)(C)c1cccc(-c2ccnc(N[C@@H]3CCCC[C@H]3N[C@H]3CCCN(c4ccc(C#N)cc4)C3)c2)c1 [Example 259],,59
CC(C)(O)c1cccc(-c2ccnc(N[C@@H]3CCCC[C@H]3N[C@H]3CCCN(c4ccc(C#N)cc4)C3)c2)c1 [Example 260],,11
